The values that follow come from patent publication EP1614683B1, “Indazole compounds and pharmaceutical compositions for inhibiting protein kinases, and methods for their use” (priority 1999, dated 2001).

For one assay, the target named is LCK tyrosine kinase (Homo sapiens, UniProt P06239, C224D/P223M). In words: LCK spectrophotometric assay. It is filed as biochemical. The note with it: Table 1; compound concentration 1 µM; read-out: Lck-P* (% inhibition). The method, then:
The spectrophotometric assay was carried out as described above for VEGF-R2, except for the following changes in concentration: LCK = 60 nM, MgCl2 = 0 mM, poly(E4Y1) = 20 mM.

Another assay addresses T1, human CHK1 (FL-CHK1) (Homo sapiens, UniProt O14757).
T1 construct: C-terminally His-tagged full-length human CHK1 (FL-CHK1) was expressed using the baculovirus/insect cell system; made in house; host or cells: baculovirus/insect cell system
T1 sequence (O14757 1-476): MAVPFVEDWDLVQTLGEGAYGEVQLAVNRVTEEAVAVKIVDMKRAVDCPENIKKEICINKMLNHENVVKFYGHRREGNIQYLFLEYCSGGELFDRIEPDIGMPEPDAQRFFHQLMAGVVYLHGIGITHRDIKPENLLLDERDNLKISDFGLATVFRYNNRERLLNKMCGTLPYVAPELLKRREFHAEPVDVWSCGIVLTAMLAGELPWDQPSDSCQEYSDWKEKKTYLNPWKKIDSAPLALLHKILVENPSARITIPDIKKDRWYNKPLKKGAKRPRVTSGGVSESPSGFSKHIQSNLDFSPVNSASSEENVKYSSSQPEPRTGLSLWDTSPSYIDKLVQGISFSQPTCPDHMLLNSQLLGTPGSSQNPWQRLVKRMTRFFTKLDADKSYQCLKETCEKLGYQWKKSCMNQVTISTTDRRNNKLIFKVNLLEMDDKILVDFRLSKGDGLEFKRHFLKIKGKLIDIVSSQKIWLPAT
The assay can be described thus: CHK1 coupled spectrophotometric assay. The note with it: read-out: CHK -1* (% inhibition). It counts as biochemical. A digest of the protocol: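 His-tagged full-length human CHK1 from baculovirus/insect cells, 10 nM, phosphorylating Syntide-2. ADP formation coupled via PK/LDH with PEP to NADH oxidation, followed as absorbance decrease at 340 nm. Ki from initial rates at varying compound concentrations.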

Another assay deals with CDK2/Cyclin A complex (Homo sapiens, UniProt P24941). The assay can be described thus: CDK2/Cyclin A assay ([32P]ATP incorporation into Rb fragment). It is filed as biochemical. The note with it: read-out: CDK2 * (% inhibition).
The target of the next assay is T2, human FAK (FAKcd409) (Homo sapiens, UniProt Q05397, P410T).
T2 construct: comprises residues methionine 409 to glutamate 689; made in house; host or cells: baculovirus vector expression system (insect cells)
T2 sequence (Q05397 409-689 P410T): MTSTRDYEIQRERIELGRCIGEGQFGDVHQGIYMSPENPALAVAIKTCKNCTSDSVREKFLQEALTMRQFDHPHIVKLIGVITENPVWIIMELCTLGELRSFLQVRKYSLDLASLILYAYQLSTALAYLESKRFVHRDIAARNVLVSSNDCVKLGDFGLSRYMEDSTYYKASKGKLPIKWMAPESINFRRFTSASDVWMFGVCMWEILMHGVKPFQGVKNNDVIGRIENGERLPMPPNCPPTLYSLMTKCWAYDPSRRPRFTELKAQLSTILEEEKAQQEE
The assay can be described thus: FAK fluorescence polarization assay. It is filed as biochemical. The following applies: Table 5; 1 µM; read-out: % Inhibition @ 1 µM FAK. A digest of the protocol:
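Baculovirus-expressed FAK catalytic domain (FAKcd409, 5 nM) phosphorylating 1 mg/ml poly Glu-Tyr (4:1) with 1 mM ATP in 100 mM Hepes pH 7.5, 10 mM MgCl2, 1 mM DTT. Stopped with EDTA; fluorescent peptide and anti-phosphotyrosine antibody added, product detected by fluorescence polarization.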

For assay [1], the target named is T3, phosphorylated Tie-2 (aa 775-1122) (Homo sapiens, UniProt Q02763).
T3 construct: 4 to 12 nM phosphorylated Tie-2 (aa 775-1122); made in house; host or cells: insect cells
T3 sequence (Q02763 775-1122): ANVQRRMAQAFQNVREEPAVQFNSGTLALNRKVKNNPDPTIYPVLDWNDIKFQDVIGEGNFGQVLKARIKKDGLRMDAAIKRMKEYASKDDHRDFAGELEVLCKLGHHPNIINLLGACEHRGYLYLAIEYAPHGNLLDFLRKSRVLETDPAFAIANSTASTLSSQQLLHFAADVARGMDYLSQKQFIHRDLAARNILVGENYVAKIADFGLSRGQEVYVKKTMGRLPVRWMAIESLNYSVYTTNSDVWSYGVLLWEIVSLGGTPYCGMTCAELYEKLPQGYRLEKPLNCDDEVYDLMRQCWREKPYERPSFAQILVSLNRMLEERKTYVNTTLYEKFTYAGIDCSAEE
The assay can be described thus: TIE-2 spectrophotometric assay. The note with it: Table 5; 1 µM; bold values spectrophotometric assay, non-bolded DELFIA assay (bold not visible here); read-out: % Inhibition @ 1 µM Tie2-P. It counts as biochemical. A digest of the protocol: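 Human phosphorylated Tie-2 kinase activity was measured spectrophotometrically by coupling ADP formation, from phosphoryl transfer to poly(Glu4 Tyr), to NADH oxidation via pyruvate kinase and lactate dehydrogenase. Absorbance loss at 340 nm was read on a Beckman DU650. Reactions held 1 mM phosphoenolpyruvate, 0.24 mM NADH, 40 mM MgCl2, 5 mM DTT, 0.5 mM ATP, and 15 units/mL each of PK and LDH in 100 mM HEPES, pH 7.5.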

The test system of assay [2] is human umbilical vein endothelial cells (HUVEC). The assay can be described thus: HUVEC proliferation assay (VEGF-stimulated, MTT). It is filed as cell-based. The following applies: Homo sapiens, HUVEC, Table 1.
In another assay the target is CDK4/Cyclin D3 complex (Homo sapiens, UniProt P11802). In words: biochemical. The following applies: read-out: CDK4 * (% inhibition).
Chain of CDK4/Cyclin D3 complex (P11802 whole entry): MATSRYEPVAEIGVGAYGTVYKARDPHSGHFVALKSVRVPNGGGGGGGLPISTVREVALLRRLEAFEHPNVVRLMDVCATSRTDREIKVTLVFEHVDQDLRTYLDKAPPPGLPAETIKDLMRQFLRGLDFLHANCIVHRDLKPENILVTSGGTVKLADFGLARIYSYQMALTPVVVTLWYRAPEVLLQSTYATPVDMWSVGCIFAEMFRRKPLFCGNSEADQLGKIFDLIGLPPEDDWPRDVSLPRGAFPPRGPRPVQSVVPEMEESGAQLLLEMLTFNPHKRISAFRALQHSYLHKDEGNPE
Chain of CDK4/Cyclin D3 complex (P30281 whole entry partner): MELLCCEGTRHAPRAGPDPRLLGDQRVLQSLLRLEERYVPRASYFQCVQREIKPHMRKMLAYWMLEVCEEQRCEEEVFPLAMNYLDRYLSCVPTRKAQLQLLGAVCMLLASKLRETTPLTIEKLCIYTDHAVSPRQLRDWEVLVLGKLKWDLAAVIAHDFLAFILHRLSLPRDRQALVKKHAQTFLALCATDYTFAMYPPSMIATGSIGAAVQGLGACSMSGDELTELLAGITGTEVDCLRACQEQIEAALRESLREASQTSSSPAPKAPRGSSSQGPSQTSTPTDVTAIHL
Setting [3] is: + albumin, read-out: HUVEC + albumin IC50.

Molecules are shown by their SMILES. Where two headings read alike, the source gives them in different places.

Chain of LCK tyrosine kinase (P06239 223-509 P223M/C224D): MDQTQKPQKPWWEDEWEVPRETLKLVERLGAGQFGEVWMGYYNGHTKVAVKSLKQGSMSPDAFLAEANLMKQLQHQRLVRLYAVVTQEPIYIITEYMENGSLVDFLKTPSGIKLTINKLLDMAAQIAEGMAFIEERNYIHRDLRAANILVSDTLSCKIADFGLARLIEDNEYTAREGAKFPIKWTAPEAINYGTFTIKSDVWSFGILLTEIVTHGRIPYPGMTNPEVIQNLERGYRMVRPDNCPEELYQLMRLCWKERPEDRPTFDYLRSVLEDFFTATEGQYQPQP

Usually inhibition stands for the drop in the measured response relative to a control, in per cent. In general, IC50 refers to the concentration that inhibits the measured activity by half. Consider `CCn1nc(C)cc1C(=O)Nc1cccc(Oc2ccc3c(/C=C/c4ccccn4)n[nH]c3c2)c1` [Reference Example 31(d), 6-[3-((1-Ethyl-3-methyl-1H-pyrazol-5-yl)carboxamido)phenoxy]-3-E-[2-(pridin-2-yl)ethenyl]-1H-indazole], for which the inhibition at 1 µM at LCK tyrosine kinase amounted to 52%; at human CHK1 (FL-CHK1), 0%; at CDK2/Cyclin A complex, 5%; at human FAK (FAKcd409), 6%; in assay [1], 46%; on CDK4/Cyclin D3 complex, 9%. In addition, the IC50 was ~13 nM in assay [2] (setting [3]) and 1.3 nM in assay [2] (read-out: HUVEC IC50).
Regarding `C#CCNC(=O)c1ccccc1Sc1ccc2c(/C=C/c3ccccn3)n[nH]c2c1` [Reference Example 35(cc), 6-[2-(2-Propynylcarbamoyl)phenylsulfany]-3-E-[2-(pyridin-2-yl)ethenyl]-1H-indazole], the inhibition at 1 µM on LCK tyrosine kinase was determined as 15%; at human CHK1 (FL-CHK1), 0%; on CDK2/Cyclin A complex it was 5%; at human FAK (FAKcd409) it was 7%; in assay [1], 47%; at CDK4/Cyclin D3 complex, 6%. Moreover, the figures for the IC50 in assay [2] (setting [3]) and in assay [2] (read-out: HUVEC IC50) were 1.6 nM and 0.05 nM, respectively.
Turning to `CCONC(=O)c1ccccc1Sc1ccc2c(/C=C/c3ccccn3)n[nH]c2c1` [Reference Example 35(dd), 6-[2-(ethoxycarbamoyl)phenylsufanyl]-3-E-[2-(pyridin-2-yl)ethenyl]-1H-indazole], the inhibition at 1 µM at LCK tyrosine kinase turned out to be 17%; on human CHK1 (FL-CHK1), 0%; at CDK2/Cyclin A complex, 7%; on human FAK (FAKcd409) it was 4%; in assay [1], 48%; on CDK4/Cyclin D3 complex, 8%. The IC50 in assay [2] (setting [3]) was found to be 2.9 nM; in assay [2] (read-out: HUVEC IC50), 0.18 nM.
`CC(C)ONC(=O)c1ccccc1Sc1ccc2c(/C=C/c3ccccn3)n[nH]c2c1` [Reference Example 35(k)]: the inhibition at 1 µM at LCK tyrosine kinase came out at 6%; on human CHK1 (FL-CHK1) it was 0%; at CDK2/Cyclin A complex it was 8%; on human FAK (FAKcd409) it was 7%; in assay [1] it was 55%; at CDK4/Cyclin D3 complex it was 7%. Moreover, the IC50 in assay [2] (setting [3]) amounted to 2.2 nM.
As to `O=C(NNc1ccccn1)c1ccccc1Sc1ccc2c(/C=C/c3ccccn3)n[nH]c2c1` [Reference Example 35(n), 6-[2-(N^2-(pyrid-2-ylhydrazino)carbonyl)phenylsulfanyl]-3-E-[2-(pyridin-2-yl)ethenyl]-1H-indazole], the inhibition at 1 µM on LCK tyrosine kinase amounted to 58%; at human CHK1 (FL-CHK1) it was 23%; on CDK2/Cyclin A complex it was 4%; at human FAK (FAKcd409), 1%; in assay [1], 82%; on CDK4/Cyclin D3 complex, 10%. The IC50 in assay [2] (setting [3]) stood at 11 nM; in assay [2] (read-out: HUVEC IC50), 0.11 nM.
`CCn1nc(C)cc1C(=O)Nc1cccc(C(=O)c2ccc3c(/C=C/c4ccccn4)n[nH]c3c2)c1` [Reference Example 41(a), 6-[3-((1-Ethyl-3-methyl-1H-pyrazol-5-yl)carboxamido)benzoyl]. 3-E-[2-(pyridin-2-yl)ethenyl]-1H-indazole]: the inhibition at 1 µM amounted to 50% at LCK tyrosine kinase; 0% at human CHK1 (FL-CHK1); 0% at CDK2/Cyclin A complex; 5% at human FAK (FAKcd409); 50% in assay [1]; 6% on CDK4/Cyclin D3 complex. The IC50 was 4.4 nM in assay [2] (setting [3]) and 0.48 nM in assay [2] (read-out: HUVEC IC50).
In the case of `CCn1nc(C)cc1C(=O)Nc1cc(C(=O)c2ccc3c(/C=C/c4ccccn4)n[nH]c3c2)ccc1C` [Reference Example 41(ee), 6-[3-((1-Ethyl-3-methyl-1H-pyrazol-5-yl)carboxamido)-4-methylbenzoyl]-3-E-[2-(pyridin-2-yl)ethenyl]-1H-indazole], the inhibition at 1 µM on LCK tyrosine kinase is 13%; at human CHK1 (FL-CHK1) it was 0%; on CDK2/Cyclin A complex, 0%; at human FAK (FAKcd409), 7%; in assay [1], 41%; at CDK4/Cyclin D3 complex, 2%. The IC50 is 4.3 nM in assay [2] (setting [3]) and 0.24 nM in assay [2] (read-out: HUVEC IC50).
In the case of `CCCn1nc(C)cc1C(=O)Nc1cccc(C(=O)c2ccc3c(/C=C/c4ccccn4)n[nH]c3c2)c1` [Reference Example 41(r)], the inhibition at 1 µM at LCK tyrosine kinase came to 55%; at human CHK1 (FL-CHK1) it was 0%; on CDK2/Cyclin A complex, 0%; on human FAK (FAKcd409), 5%; in assay [1] it was 56%; on CDK4/Cyclin D3 complex it was 5%. Also, the IC50 in assay [2] (setting [3]) was found to be 11 nM.
